The values below come from the METLIN SMRT retention time set (Domingo-Almenara et al. 2019).

The data set can be described thus: gradient 5% acetonitrile 3 min, to 50% in 2 min, to 85% in 15 min, held 3 min, 100 µL/min. Conditions: column: Zorbax Extend-C18 2.1 x 50 mm; eluents: water / acetonitrile, 0.1% formic acid. The essentials: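 Values are retention times taken from adduct peaks that software picked and an analyst inspected. The pure standards were run as mixtures of ~100 molecules on HPLC linked to a quadrupole time-of-flight mass spectrometer, in positive and negative ionization mode. A Zorbax Extend-C18 column (2.1 × 50 mm, 1.8 μm) was used at 100 μL/min with water and acetonitrile, each including 0.1% formic acid.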
In the case of `Cc1ccc(N2CC(c3nc(-c4ccc5oc(C)nc5c4)no3)CC2=O)cc1` (centres undefined), the RP-LC retention time came to 903 s.
As for `Cc1cc(Cl)ccc1S(=O)(=O)NCCn1c(C)cnc1C1CCC1`, the figure is 592 s.
Consider `Cc1ccc(CNC(=O)c2cccc(-c3nc4cccnc4n3C(C)C)c2)o1`, for which the RP-LC retention time is 793 s.
With `CCOc1ccc(C(=O)N2CCc3nc(-c4ccc(OC)cc4)ncc3C2)cc1` the figure was 962 s; with `Cc1ccc(S(=O)(=O)c2cnc(N3CCN(c4ccccn4)CC3)nc2N)cc1`, 1160 s; with `Cc1cnc(C(=O)N[C@@H]2CCC[C@@H]2C(=O)NCc2ccc3c(c2)OCO3)cn1`, 662 s.
With `O=C(c1ccco1)N1CCN(C(=O)c2sc3ncccc3c2-n2cccc2)CC1` the figure was 753 s; with `COC(=O)c1cnn(-c2ccc(C(=O)N3CCCC3)cc2)c1N`, 654 s.
As for `O=C(c1ccc(F)c(F)c1)N1CCN(c2nc(CN3CCOCC3)cs2)CC1`, the figure is 617 s.
Molecule `CCn1cc(C(=O)N2CCc3ccccc32)c2nn(-c3ccccc3)c(=O)c-2c1` showed an RP-LC retention time of 803 s.
`CN1CCCc2cc(C(=O)N3CCC4(CC3)OCCO4)sc21` came in with an RP-LC retention time of 796 s.
Consider `CCOC(=O)c1ccccc1NC(=O)Cn1c(=O)n(CC)c(=O)c2c1cc(C)n2C`, for which the RP-LC retention time came to 978 s.
In the case of `COc1ccc(-c2noc(CN3N=NC4C(=O)N(c5cccc(F)c5)C(=O)C43)n2)c(OC)c1` (centres undefined), the RP-LC retention time was 610 s.
With `O=S(=O)(NCc1ccccc1Cl)c1ccc2c(c1)-c1oncc1CO2` the figure was 907 s; with `Cc1cc(C)n(CCC(=O)N[C@@H]2CN(S(C)(=O)=O)C[C@H]2CN(C)C)n1`, 564 s; with `COC(=O)COC(=O)c1cn(-c2ccc(C)cc2)c(=O)c2ccccc12`, 986 s.
As for `Cc1oc(-c2[nH]ncc2C(=O)N2CCCCC2)cc1S(=O)(=O)Nc1cccc(Cl)c1`, the figure is 796 s.
With `Cc1ccccc1-c1noc(C2CCCN2C(=O)Nc2cccc(Cl)c2)n1` (centres undefined) the figure was 1080 s; with `CN(NC(=O)CC(=O)NN(C)C(=S)c1ccccc1)C(=S)c1ccccc1`, 862 s; with `O=C(Cc1nnc(-c2ccc3ncccc3c2)o1)Nc1cccc(C(F)(F)F)c1`, 802 s.
For the molecule `CCC1CN(C(=O)N2CCC(C(=O)NCCN3CCN(CC)CC3)CC2)c2ccccc2O1` (centres undefined), the RP-LC retention time stood at 617 s.
With `CCOc1ccccc1N1CCN(C(=O)C2CCN(c3nccc4c(C)nn(CC)c34)CC2)CC1` the figure was 719 s; with `CCn1cnc2cc(-c3noc(C4CC(=O)N(c5ccccc5)C4)n3)ccc21` (centres undefined), 664 s.
With `O=C(OCc1cc(-c2cc3ccccc3o2)on1)c1ccccc1S(=O)(=O)C(F)F` the figure was 1090 s; with `CCNC(=O)C1CCN(c2nc3ccc(-c4cccc(F)c4)nc3s2)CC1`, 905 s; with `Cc1ccc(NC(=O)CSc2nccc(N3CCN(c4cc(C)ccc4C)CC3)n2)cc1`, 950 s.
As for `CN1C(=O)c2cc(C(=O)Nc3ccc(F)cc3F)nn2CC1(C)C(=O)NC1CCCCC1` (centres undefined), the figure is 732 s; as for `Cc1ccc(-c2nocc2CCC(=O)O)cc1`, 748 s.
`COc1ccccc1S(=O)(=O)NCCc1ccsc1` returned an RP-LC retention time of 824 s.
As for `COCCNC(=O)c1ccc2c(c1)CCCN2S(=O)(=O)c1ccccc1`, the figure is 767 s; as for `O=C(NCCc1csc(-c2ccccc2)n1)C1CCN(S(=O)(=O)c2ccc(Cl)cc2)CC1`, 984 s; as for `CN1C(=O)[C@H]2CN(Cc3cccc(Br)c3)C[C@H]2C1=O`, 608 s.
With `COc1ccc(Cn2c(=O)n(C)c3ncncc32)cc1F` the figure was 683 s.
`CCC(=O)N1CCC2(CC1)NCc1ccccc1-n1ccnc12` came in with an RP-LC retention time of 562 s.
The molecule `CC(C)c1nncn1C1CCN(S(=O)(=O)Cc2ccccc2F)CC1` showed an RP-LC retention time of 688 s.
The molecule `O=C(NC1CCCCCCC1)C1CCN(C(=O)c2ccc(F)cc2)CC1` had an RP-LC retention time of 858 s.
Consider `O=C(CC1CCN(C(=O)c2ccc3nc(-c4ccccc4)oc3c2)CC1)NC1CC1`, for which the RP-LC retention time is 730 s.
With `CCOC(=O)c1c(S(=O)(=O)N2CCC(C(=O)NCC3CCCO3)CC2)c(C)n(C)c1C` (centres undefined) the figure was 674 s; with `CCC(NC(=O)C1CCN(c2cncnc2N2CCOCC2)CC1)c1ccc(OC)cc1` (centres undefined), 643 s.
With `COc1ccc(NC(=O)N2CCc3c(c(=O)c4cc(C)cc(C)c4n3C)C2)cc1OC` the figure was 628 s.
With `CCc1cc(=O)n(CC(=O)Nc2ccccc2CC)c(N)n1` the figure was 610 s; with `Cc1ccc(-c2nc3cccnc3n2C2CCN(S(=O)(=O)c3cccnc3)C2)cc1` (centres undefined), 728 s; with `O=C(Nc1ccc(F)cc1)c1csc(-c2ccc(N3CCCC3)nc2)n1`, 743 s.
Molecule `CCn1ccc(C(=O)N2CC(Oc3ccc(-c4nc(-c5ccccc5)no4)cc3)C2)n1` registered an RP-LC retention time of 1130 s.
As for `Cc1ccc2nc(C(=O)NCCN3CCCCC3C)cn2c1` (centres undefined), the figure is 552 s; as for `COc1ccc(-c2cc3c4nnc(SCC(=O)Nc5cccc(Br)c5)n4ccn3n2)cc1`, 1320 s.
With `Cc1ccccc1-c1nc(C2CCN(S(=O)(=O)c3ccc(F)cc3)CC2)no1` the figure was 1180 s; with `Cc1ccc(C)c(C(=O)N2C[C@@H](F)C[C@H]2C(=O)N2CCCCC2)c1`, 710 s.
For the molecule `CCc1cc(C2CCCN2C(=O)c2cnn3c(C(F)(F)F)cc(-c4ccco4)nc23)on1` (centres undefined), the RP-LC retention time was found to be 870 s.
Take `O=C(Cn1cnc2ccccc2c1=O)N1CCC(c2nnc(-c3ccco3)s2)CC1`: the RP-LC retention time stood at 643 s.
As for `O=C(Cn1cnc2c(sc3nc(-c4ccccc4)ccc32)c1=O)NC1CCCCC1`, the figure is 972 s.
As for `Oc1ccc(-c2nc3ccccn3c2Nc2ccc3c(c2)OCCO3)cc1`, the figure is 596 s; as for `O=S(=O)(NC1CCCCC1)c1cc(-c2noc(C3CCCC3)n2)cs1`, 1230 s.
As for `COC(=O)CNC(=O)NCCn1c(C(F)(F)F)nc2ccccc21`, the figure is 653 s; as for `CC(C)NC(=O)N1CCCC(c2cccc(C(=O)NCc3cccc(C(F)(F)F)c3)c2)C1` (centres undefined), 958 s.
`CCCNC(=O)C1CCN(S(C)(=O)=O)c2ccccc2O1` (centres undefined) registered an RP-LC retention time of 708 s.
As for `COC1CCC12CCN(Cc1ccc(C#N)cc1)CC2` (centres undefined), the figure is 597 s; as for `COc1ccc(C2CC(=O)c3c(C)nn(-c4nc5ccccc5[nH]4)c3C2)c(OC)c1` (centres undefined), 1020 s.
`CCn1cc(-c2nc(C)c(C(=O)Nc3ccc(C)cc3)s2)c2cccnc21` displayed an RP-LC retention time of 784 s.
As for `Cc1nc2ccc(NC(=O)Cc3ccc4c(c3)OCO4)cc2s1`, the figure is 716 s; as for `O=C(Nc1cccc(Br)c1)N1CCC(N2CCN(Cc3ccccc3)C2=O)CC1`, 847 s; as for `Cn1cccc1C(CNS(=O)(=O)c1ccc2c(c1)OCCO2)N1CCOCC1` (centres undefined), 563 s.
Molecule `Cc1ccc(NC(=O)C2CCCN(S(=O)(=O)c3cc(-c4noc(C)n4)cs3)C2)c(Cl)c1` (centres undefined) registered an RP-LC retention time of 1060 s.
As for `Cc1cc(N2CCN(C)CC2)nc2ccc(NC(=S)NCCN3CCc4ccccc4C3)cc12`, the figure is 538 s; as for `CCC(=O)N1CCC(N2C(=O)C(O)C23CCCCC3)CC1` (centres undefined), 590 s; as for `CCOC(=O)N1CCN(c2nc(Nc3ccc(OC)cc3)c3nccnc3n2)CC1`, 670 s.
With `O=C(O)c1ccc(Nc2c(-c3cccc(O)c3)nc3cnccn23)cc1` the figure was 620 s.
As for `COCCNC(=O)Cc1c(C)n(Cc2ccccc2)c2nc(-c3ccccc3)nn2c1=O`, the figure is 776 s; as for `Cc1ccc(C)c(NC(=O)Cn2c(C(C)C)nc3c(c2=O)CCN(Cc2ccccc2)C3)c1`, 734 s; as for `CCC1CN(C(=O)N2CCC(C(=O)NCCCOC)CC2)c2cc(C)ccc2O1` (centres undefined), 757 s.
Take `Cc1cc(NC(=O)c2cccc(N3C(=O)CCC3=O)c2)on1`: the RP-LC retention time is 622 s.
With `CC1(C(=O)NCc2ccc(F)cc2)CCN(C(=O)Nc2ccc3c(c2)OCCO3)CC1` the figure was 653 s; with `CCc1nn2c(CNS(=O)(=O)c3ccc(Cl)cc3)c(-c3ccccc3)nc2s1`, 1000 s; with `Cc1ccc(NC(=O)CN2C(=O)C3CCCCN3c3ccc(S(=O)(=O)N(C)C)cc32)c(C)c1` (centres undefined), 994 s.
The molecule `COc1ccc(NC(=O)c2cc3c(=O)oc4ccccc4c3n2C)cc1OC` returned an RP-LC retention time of 850 s.
With `O=C(CN1CC=C(c2cnn(-c3ccc(F)cc3)c2)CC1)NC1CCCCC1` the figure was 695 s; with `COCCNC(=O)CN1c2ccc(F)cc2-c2ccccc2S1(=O)=O`, 756 s.
For `CN(C)C(=O)c1cccnc1OC1CCN(C(=O)c2cccc(Br)c2)C1` (centres undefined), the RP-LC retention time amounted to 709 s.
As for `COc1ccc(-c2cc(N3CCN(C(=O)c4c(F)cccc4Cl)CC3)ncn2)cc1`, the figure is 612 s.
